Series [1] is described as follows: Cytotoxicity on L929 cells. The following applies: mouse. The format is cell-based.
Series [2] relates to epimastigotes of T. cruzi (CL strain lacZ). The series can be described thus: microbe, parasite or virus in culture. Format: cell-based. The following applies: Trypanosoma cruzi.
The test system of series [3] is intracellular amastigotes of L. donovani (strain MHOM/ET/67/HU3). As to the kind of experiment: L. donovani intracellular amastigotes in THP-1-derived macrophages, resazurin method. Format: cell-based. Particulars: for SI selectivity index (EC50 THP-1/EC50 parasite (amastigote form)): THP-1 vs L. donovani amastigotes. Here is the method:
(§1) Furthermore, their cytotoxicity on human THP-1 cells was evaluated and the selectivity index (SI) of each compound was calculated (Table 1).

The subject of series [4] is T. b. brucei drug-resistant strain B48. Format: cell-based. The following applies: for RF resistance factor (EC50 T. b. B48/EC50 T. b. s427): value in parentheses.
The nature of series [5]: Microsomal stability, human liver microsomes, phase I. Particulars: reaction time up to 120 min.
Series [6] is described as follows: Microsomal stability, mouse liver microsomes. Particulars: reaction time up to 120 min.
In a further series the test system is HEK cells. As to the kind of experiment: Cytotoxicity on HEK cells. The following applies: read-out: CC50 HEK; concentration that causes 50% cell death.
The subject of series [7] is T. b. brucei wild strain s427. The series can be described thus: T. b. brucei s427 bloodstream trypomastigotes, Alamar blue. Format: cell-based.
The nature of series [8]: Cytotoxicity on THP-1 cells. The following applies: human. Here is the method:
as §1

Bounds are passed on as bounds.

Regarding `O=C(Cn1ccnc1[N+](=O)[O-])NCc1ccccc1` [benzn, benznidazole], the EC50 at 72 h in series [1] is > 200 µM. Moreover, in series [2], the EC50 turned out to be 25.3 ± 2.1 µM.

For `CCCCCCCCCCCCCCCCOP(=O)([O-])OCC[N+](C)(C)C` [MIL, Miltefosine], the “SI selectivity index (EC50 THP-1/EC50 parasite (amastigote form))” value in [3] turned out to be 28.8.

Take `N=C(N)c1ccc(/N=N/Nc2ccc(C(=N)N)cc2)cc1` [dimin., Diminazene]: the “RF resistance factor (EC50 T. b. B48/EC50 T. b. s427)” value (“RF resistance factor” for short) in [4] is “(13.1)”.

On to `c1ccc2[nH]c(=Nc3ccc(CCc4ccc(N=c5[nH]c6ccccc6[nH]5)cc4)cc3)[nH]c2c1` [Compound 13, 4,4′-(ethane-1,2-diyl)bis(N-(1H-benzo[d]imidazol-2(3H)-ylidene)aniline)], for which the 50% effective concentration (EC50) in [3] (Leishmania donovani, Macrophage, read-out: EC50 L. donovani intracellular amastigotes) was > 10 µM.

Take `O=C(O)Cc1ccccc1Nc1c(Cl)cccc1Cl` [diclofenac]: in series [5], the “metabolism by human liver microsomes, in words” value is recorded as “rapidly metabolised (high intrinsic clearance)”. The “metabolism by mouse liver microsomes (CD-1), in words” value in series [6] is reported as “slowly metabolised”.

As for `O=C(Nc1ccc(N=c2[nH]c3ccccc3[nH]2)c(Cl)c1)c1ccc(N=c2[nH]c3ccccc3[nH]2)cc1Cl` [Compound 1f, 4-((1H-benzo[d]imidazol-2(3H)-ylidene)amino)-N-(4-((1H-benzo[d]imidazol-2(3H)-ylidene)amino)-3-chlorophenyl)-2-clorobenzamide], in the series with HEK cells, the CC50 worked out at 10.2 ± 0.3 µM. Further, the concentration for a half-maximal effect (EC50) in [4] (strain B48 resistant to pentamidine and diminazene) was found to be 2.93 ± 0.17 µM; in [7] (strain s427 of T. b. brucei), 2.64 ± 0.09 µM. Also, in series [4], the “RF resistance factor” value is listed as “(1.11)”. Further, in series [7] (HEK vs T. brucei), the SI came to 3.9.

For `C[C@@H]1[C@H](O)[C@@H](C)/C=C/C=C/C=C/C=C/C=C/C=C/C=C/[C@H](O[C@@H]2O[C@H](C)[C@@H](O)[C@H](N)[C@@H]2O)C[C@@H]2O[C@](O)(C[C@@H](O)C[C@@H](O)[C@H](O)CC[C@@H](O)C[C@@H](O)CC(=O)O[C@H]1C)C[C@H](O)[C@H]2C(=O)O` [AmB, Amphotericin B], the “SI selectivity index (EC50 THP-1/EC50 parasite (amastigote form))” value in [3] is 116.0.

In the case of `N=C(N)c1ccc(OCCCCCOc2ccc(C(=N)N)cc2)cc1` [pent., Pentamidine], the “RF resistance factor” value in series [4] is “(168)”.

In the case of `N=C(Nc1ccc(CCc2ccc(NC(=N)c3ccccn3)cc2)cc1)c1ccccn1` [Compound 17, N,N″-(ethane-1,2-diylbis(4,1-phenylene))dipicolinimidamide], in series [1], the half-maximal effective concentration (EC50) at 72 h was > 200 µM. Further, in series [8], the concentration for a half-maximal effect (EC50) was > 50 µM.

The values are drawn from patent publication US20250214964A1, “COMPOUNDS DERIVED FROM 4-AMINO-N-(4-AMINOPHENYL) BENZAMIDE AND ANALOGUES AND USE THEREOF” (priority 2022, published 2025).
